Experimental data taken from patent US20160355465A1, “NOVEL MODIFIED CURCUMINS AND THEIR USES” (THE RESEARCH FOUNDATION OF STATE UNIVERSITY OF NEW YORK, priority 2011, published 2016).

Legend:
skin wounds = assay: healing of 6 mm skin wounds in streptozotocin-diabetic rats, clinical wound diameter; assay type: in vivo, rat; details: 7 days
Method: Three weeks after inducing diabetes, the back skin of all the rats was shaved and a series of 6 standard wounds per rat, each 6 mm in diameter, was made using a surgical trephine.
A finely-ground sample (0.1 g) of Compound 4 [4-(phenylaminocarbonyl)-1,7-bis(4-hydroxyphenyl)hepta-1e,6e-diene-3,5-dione] was added to petrolatum jelly (9 g) and the mixture was homogenized for 15 minutes at 25° C., then allowed to settle for 5 minutes. This procedure was repeated nine times, producing a homogeneous product having a cream-like consistency. This was then used in topical application to wounds.
The following five experimental groups (n=3 rats per group) were established: Non-diabetic control rats (NDC) treated by daily application of white petrolatum jelly (“vehicle”) for 7 days, diabetic rats (D group) treated daily with vehicle alone; diabetics treated by daily topical application of either a 1% (D+1%) or a 3% (D+3%) suspension of Compound 4 in the vehicle; and diabetics treated systemically by daily oral intubation of a 1 ml suspension of Compound 4 (in carboxymethylcellulose) at a dose of 30 mg/kg over the 7-day treatment protocol (D+30 mg/kg). At the end of this time period, the circular wounds were clinically assessed by measuring diameter of the wound in millimeters, blood samples were collected, the rats were sacrificed, and skin samples collected for histological/histochemical, and biochemical assessment as described below. • 1) On day 7 after inducing wound healing, the animals were anesthetized and blood samples collected for blood glucose (one Touch Ultra Glucometer; Johnson & Johnson, New Brunswick, N.J.) and Hemoglobin A1c (A1c Now+; Bayer Health Care, Sunnyvale, Calif.) measurements. • 2) Photographs were taken for clinical observations to assess wound closure. The % reduction of the wound surface was calculated by measuring the diameter (in millimeters) of each wound before and after the treatment protocol. • 3) Wound tissues on day 7 were excised from 3 sites per rat and pooled for biochemical analysis. […]

MMP-7 = molecular target: T1, MMP-7 (Homo sapiens, UniProt P09237); assay: fluorimetric assay of MMP activity; assay type: biochemical; details: synthetic fluorescent peptide substrate Mca-Lys-Pro-Leu-Gly-Leu-Dpa-Ala-Arg-NH2
T1 sequence (P09237 95-267): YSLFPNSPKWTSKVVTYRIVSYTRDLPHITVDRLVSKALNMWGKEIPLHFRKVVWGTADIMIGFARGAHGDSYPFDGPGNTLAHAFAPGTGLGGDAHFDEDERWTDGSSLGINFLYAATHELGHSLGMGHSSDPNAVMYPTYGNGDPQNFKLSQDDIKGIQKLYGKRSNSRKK

mosquito bites = mosquito bites on the arms of a human subject, topical; assay type: in vivo; details: Example 9
Source text: Mosquitoes are presented with and allowed to bite the left and right arms of a human subject.

collagen in wound tissue = assay: collagen fractions (hydroxyproline) in wound tissue of diabetic rats; assay type: in vivo, rat; details: wound tissue day 6
Source text: Biochemical measurements were made on wound tissue 6 days after creating the standardized 6 mm diameter wounds in the various groups of rats including: (1) non-diabetic controls (NDC); (2) Diabetic (DM) rats treated topically with 0.25% curcumin; (3) DM treated with 1% curcumin; (4) DM treated with 0.25% Compound 4, and (5) DM rats treated with 1% Compound 4. The wound tissues from these five different groups were then hydrolyzed (after extraction; see below) to degrade the collagen to individual amino acids, and the amino acid unique to collagen, hydroxyproline, was measured by a commercial colorimetric assay. Prior to hydrolysis, the wound tissues were extracted (at 4° C. to maintain the triple-helical conformation of the collagen molecules) to obtain first the salt-soluble fraction, then the acid-soluble fraction, leaving the insoluble fraction.

IL-1β = assay: cytokine production by peritoneal macrophages of orally treated diabetic rats in culture; assay type: in vivo, rat; details: oral 30 mg/kg daily, 21 days, culture with or without P. gingivalis LPS
Method: (§1) Adult male Sprague-Dawley rats (body weight 300-350 g) were injected through the tail vein with either 0.9% saline (non-diabetic control) or with the same solution containing streptozotocin (70 mg/kg body weight) to induce diabetes. Non-diabetic rats served as normal controls. The diabetic rats were distributed into 2 experimental groups (3 rats per group). Urine glucose levels were measured weekly with Tes-Tape (Eli Lilly Inc.). One group of rats was treated by oral gavage of Compound 4 (30 mg/kg body weight) daily for 21 days; the Compound 4 was suspended in 2% carboxymethyl cellulose and polytron/homogenized. The normal & diabetic vehicle-treated (control) groups were oral gavaged with vehicle alone daily.
(§2) Rat peritoneal macrophages were harvested with 10 ml RPMI 4 days after intraperitoneal injection of 10 ml of thioglycolate (3% wt/vol). Macrophages were then purified by density gradient centrifugation (lymphoprep) and cell numbers were counted in a hemocytometer. The cells were then tested in a cell migration assay (Cell BioLabs, Inc, CytoSelect 96-well with 5 um fluorometric format) using conditioned medium containing inflammatory mediators including MCP-1 from LPS-macrophages as a chemoattractant. The macrophages from different groups of rats were also plated onto 24 well-plates with and without p.g.LPS challenge for 24 hours in 37° C., 5% CO2. […]

IL-6 = assay: as above; assay type: in vivo, rat; details: oral 30 mg/kg daily, 21 days, culture with or without P. gingivalis LPS
Method: as §1, §2

MMP-8 = MMP-8 (Homo sapiens, UniProt P22894); assay: fluorimetric assay of MMP activity; assay type: biochemical; details: synthetic fluorescent peptide substrate Mca-Lys-Pro-Leu-Gly-Leu-Dpa-Ala-Arg-NH2
Sequence of MMP-8 (P22894 101-467): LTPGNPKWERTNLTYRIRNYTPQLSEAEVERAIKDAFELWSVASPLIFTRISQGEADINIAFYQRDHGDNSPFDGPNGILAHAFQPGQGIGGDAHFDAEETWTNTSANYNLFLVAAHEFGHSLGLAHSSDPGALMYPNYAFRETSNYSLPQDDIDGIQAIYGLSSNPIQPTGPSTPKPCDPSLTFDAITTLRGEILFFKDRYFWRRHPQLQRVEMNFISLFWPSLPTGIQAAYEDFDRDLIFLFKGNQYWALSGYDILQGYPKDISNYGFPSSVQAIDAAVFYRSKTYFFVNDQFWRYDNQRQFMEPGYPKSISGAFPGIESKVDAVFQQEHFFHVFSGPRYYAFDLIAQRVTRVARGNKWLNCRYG

With O=C(/C=C/c1ccc(O)cc1)C(C(=O)/C=C/c1ccc(O)cc1)C(=O)Nc1ccccc1 [Compound 4, 1,7-Bis(4-hydroxyphenyl)-4-N-phenylaminocarbonylhepta-1E, 6E-dien-3,5-dione] the “reduction in wound diameter” value (skin wounds; 1% topical in petrolatum jelly, daily, non-diabetic control 30%) was 35%, the “wound healing (in words)” value (skin wounds; 3% topical, daily) was “significant increase in wound healing over that of the untreated diabetic control” and the “wound healing (in words)” value (skin wounds; systemic, oral 30 mg/kg daily) was “returned wound healing characteristics to that seen in the non-diabetic control group”. For the same molecule, the IC50 (MMP-7) was 5 ± 0.7 µM, the “itching and healing of mosquito bites compared with Compound 2” value (mosquito bites) was “stop itching sooner and heal quicker” and the “Collagen Fractions (%) Acid-soluble” value (collagen in wound tissue; 0.25% topical) was 41.7%. The “Collagen Fractions (%) Insoluble” value (collagen in wound tissue; 0.25% topical) was 31.7%, the “Collagen Fractions (%) Salt-soluble” value (collagen in wound tissue; 0.25% topical) was 26.6% and the “Collagen Fractions (%) Acid-soluble” value (collagen in wound tissue; 1% topical) was 29.4%. For the same molecule, the “Collagen Fractions (%) Insoluble” value (collagen in wound tissue; 1% topical) was 40.5%, the “Collagen Fractions (%) Salt-soluble” value (collagen in wound tissue; 1% topical) was 30.1% and the “IL-1β production by peritoneal macrophages” value (IL-1β) was “decreased excessive inflammatory cytokine”. The “IL-6 production by peritoneal macrophages” value (IL-6) was “decreased excessive inflammatory cytokine” and the IC50 (MMP-8) was 4.5 ± 0.5 µM.
